From patent publication US9206188B2, “Substituted pyrrolo[2,3-b]pyridines as ITK and JAK inhibitors” (Arrien Pharmaceuticals LLC, priority 2013, dated 2015)
Where two headings read alike, the source gives them in different places.

How the values were obtained:
JAK3 = JAK3 (Homo sapiens (Human), UniProt P52333); assay: JAK3 kinase assay (radiometric filter binding, 10 μM ATP); type: biochemical
Procedure: (§1) All additions were done on ice, followed by the addition of ATP mix. Wells were uniformly mixed using an Eppendorff plate shaker and incubated at 30° C. for 20 min, and stopped by the addition of 5 μL of 3% phosphoric acid. Volume was increased to 100 μL by adding 0.8% phosphoric acid which was then transferred to PC filter mats (Millipore), pre-equilibrated with 70% ethanol and water. Plates were washed thrice with 100 μL 0.8% phosphoric acid and dried for an hour at 60° C. 100 μL scintillation fluid was added into each well and reading taken in Perkin Elmer TOPCOUNT beta counter.
(§2) The reactions were carried out at 10 μM ATP for ITK, JAK3 and other TEC and Janus family of kinase.

ITK = ITK (Homo sapiens (Human), UniProt Q08881); assay: ITK kinase assay (radiometric filter binding, 10 μM ATP); type: biochemical
Procedure: as §1, §2

[1] = 10-dose IC50 mode, 10 μM ATP, read-out: JAK3 kinase inhibition
[2] = 10-dose IC50 mode, 10 μM ATP, read-out: ITK kinase inhibition

JAK3, sequence (P52333 whole entry): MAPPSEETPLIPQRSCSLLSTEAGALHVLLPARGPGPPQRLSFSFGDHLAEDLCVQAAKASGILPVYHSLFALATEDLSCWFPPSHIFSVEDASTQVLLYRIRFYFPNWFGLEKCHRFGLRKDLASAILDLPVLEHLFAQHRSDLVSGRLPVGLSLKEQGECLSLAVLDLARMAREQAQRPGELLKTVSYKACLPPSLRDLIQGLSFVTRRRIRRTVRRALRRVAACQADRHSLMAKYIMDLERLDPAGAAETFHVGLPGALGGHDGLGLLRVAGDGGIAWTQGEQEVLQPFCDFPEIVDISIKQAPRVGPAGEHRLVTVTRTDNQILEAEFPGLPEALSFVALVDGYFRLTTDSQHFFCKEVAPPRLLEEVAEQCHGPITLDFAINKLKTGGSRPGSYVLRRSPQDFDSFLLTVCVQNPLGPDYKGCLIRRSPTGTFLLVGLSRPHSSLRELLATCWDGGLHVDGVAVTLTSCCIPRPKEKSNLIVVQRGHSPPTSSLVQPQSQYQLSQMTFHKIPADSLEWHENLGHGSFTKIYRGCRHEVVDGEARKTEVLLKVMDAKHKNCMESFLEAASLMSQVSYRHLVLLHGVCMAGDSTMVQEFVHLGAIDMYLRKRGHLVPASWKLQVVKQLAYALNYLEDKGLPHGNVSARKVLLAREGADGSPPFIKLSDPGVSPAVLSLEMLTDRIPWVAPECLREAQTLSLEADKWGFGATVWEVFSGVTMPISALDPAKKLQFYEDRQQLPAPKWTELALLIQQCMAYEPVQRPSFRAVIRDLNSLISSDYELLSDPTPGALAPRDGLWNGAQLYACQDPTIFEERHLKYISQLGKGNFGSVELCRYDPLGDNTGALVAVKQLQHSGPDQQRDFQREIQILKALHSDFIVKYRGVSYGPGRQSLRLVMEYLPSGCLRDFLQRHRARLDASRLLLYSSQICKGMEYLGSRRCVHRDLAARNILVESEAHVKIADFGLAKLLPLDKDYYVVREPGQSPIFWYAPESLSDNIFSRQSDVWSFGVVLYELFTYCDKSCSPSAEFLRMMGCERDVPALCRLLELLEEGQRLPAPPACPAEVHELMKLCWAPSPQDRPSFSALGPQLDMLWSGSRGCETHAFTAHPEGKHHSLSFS
ITK, sequence (Q08881 whole entry): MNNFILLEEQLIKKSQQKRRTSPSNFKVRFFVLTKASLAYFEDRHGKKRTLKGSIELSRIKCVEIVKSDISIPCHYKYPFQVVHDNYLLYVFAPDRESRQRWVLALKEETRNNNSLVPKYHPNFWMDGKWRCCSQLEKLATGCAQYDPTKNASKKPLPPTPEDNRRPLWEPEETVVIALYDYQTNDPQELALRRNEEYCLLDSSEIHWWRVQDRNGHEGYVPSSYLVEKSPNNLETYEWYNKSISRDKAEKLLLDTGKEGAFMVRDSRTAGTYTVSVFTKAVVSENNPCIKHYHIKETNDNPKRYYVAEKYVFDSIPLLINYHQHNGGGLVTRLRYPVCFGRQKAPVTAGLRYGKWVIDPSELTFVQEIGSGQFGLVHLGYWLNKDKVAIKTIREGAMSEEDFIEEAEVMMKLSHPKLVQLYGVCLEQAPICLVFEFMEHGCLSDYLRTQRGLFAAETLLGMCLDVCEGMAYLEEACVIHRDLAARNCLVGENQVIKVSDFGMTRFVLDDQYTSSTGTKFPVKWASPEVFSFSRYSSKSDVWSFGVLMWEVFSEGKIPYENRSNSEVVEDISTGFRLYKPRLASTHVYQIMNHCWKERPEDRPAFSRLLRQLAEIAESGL

Structure (SMILES)	IC50 (JAK3; [1])	IC50 (ITK; [2])	IC50 (JAK3; read-out: biochemical IC50 against JAK3)	IC50 (ITK; read-out: biochemical IC50 against ITK)	IC50 (ITK; read-out: ITK kinase inhibition)
Cc1c[nH]c2ncc(-c3cccc(NC(=O)C4CCCN4)c3)cc12 (stereo not shown) [Example 71, N-(3-(3-methyl-1H-pyrrolo[2,3-b]pyridin-5-yl)phenyl)pyrrolidine-2-carboxamide]	> 100 nM	> 100 nM	–	–	–
C=CC(=O)N1CCCC1C(=O)Nc1cccc(-c2cnc3[nH]cc(C)c3c2)c1 (stereo not shown) [Example 72, 1-acryloyl-N-(3-(3-methyl-1H-pyrrolo[2,3-b]pyridin-5-yl)phenyl)pyrrolidine-2-carboxamide]	> 100 nM	> 100 nM	–	–	–
C=CC(=O)Nc1cccc(-c2cnc3[nH]cc(-c4cc5ccccc5[nH]4)c3c2)c1 [Example 74, N-(3-(3-(1H-indol-2-yl)-1H-pyrrolo[2,3-b]pyridin-5-yl)phenyl)acrylamide]	> 100 nM	> 1000 nM	–	–	–
C=CC(=O)Nc1cccc(-c2cnc3[nH]cc(-c4cc5ccc(C)cc5[nH]4)c3c2)c1 [Example 75, N-(3-(3-(6-methyl-1H-indol-2-yl)-1H-pyrrolo[2,3-b]pyridin-5-yl)phenyl)acrylamide]	< 100 nM	> 1000 nM	100 to 1000 nM	100 to 1000 nM	–
C=CC(=O)Nc1cccc(-c2cnc3[nH]cc(-c4cccc(C(N)=O)c4)c3c2)c1 [Example 76, 3-(5-(3-acrylamidophenyl)-1H-pyrrolo[2,3-b]pyridin-3-yl)benzamide]	> 100 nM	> 100 nM	–	–	–
C#CC(=O)Nc1cccc(-c2cnc3[nH]ccc3c2)n1 [Example 77, N-(6-(1H-pyrrolo[2,3-b]pyridin-5-yl)pyridin-2-yl)propiolamide]	< 100 nM	< 100 nM	–	–	–
CCC#CC(=O)Nc1cccc(-c2cnc3[nH]ccc3c2)n1 [Example 78, N-(6-(1H-pyrrolo[2,3-b]pyridin-5-yl)pyridin-2-yl)pent-2-ynamide]	< 100 nM	< 100 nM	–	–	–
C#CC(=O)Nc1cccc(-c2cnc3[nH]cc(Cl)c3c2)n1 [Example 79, N-(6-(3-chloro-1H-pyrrolo[2,3-b]pyridin-5-yl)pyridin-2-yl)propiolamide]	< 100 nM	< 100 nM	–	–	–
CCC#CC(=O)Nc1cccc(-c2cnc3[nH]cc(Cl)c3c2)n1 [Example 80, N-(6-(3-chloro-1H-pyrrolo[2,3-b]pyridin-5-yl)pyridin-2-yl)pent-2-ynamide]	< 100 nM	< 100 nM	–	–	–
CC#CC(=O)Nc1cccc(-c2cnc3[nH]ccc3c2)n1 [Example 81, N-(6-(1H-pyrrolo[2,3-b]pyridin-5-yl)pyridin-2-yl)but-2-ynamide]	< 100 nM	< 100 nM	–	–	–
CC#CC(=O)Nc1cccc(-c2cnc3[nH]cc(Cl)c3c2)n1 [Example 82, N-(6-(3-chloro-1H-pyrrolo[2,3-b]pyridin-5-yl)pyridin-2-yl)but-2-ynamide]	< 100 nM	< 100 nM	–	–	–
C#CC(=O)Nc1cc(-c2cnc3[nH]ccc3c2)ccc1F [Example 83, N-(2-fluoro-5-(1H-pyrrolo[2,3-b]pyridin-5-yl)phenyl)propiolamide]	< 100 nM	> 1000 nM	–	–	–
C#CC(=O)Nc1cc(-c2cnc3[nH]cc(Cl)c3c2)ccc1F [Example 84, N-(5-(3-chloro-1H-pyrrolo[2,3-b]pyridin-5-yl)-2-fluorophenyl)propiolamide]	< 100 nM	> 1000 nM	–	–	–
CCC#CC(=O)Nc1cc(-c2cnc3[nH]ccc3c2)ccc1F [Example 85, N-(2-fluoro-5-(1H-pyrrolo[2,3-b]pyridin-5-yl)phenyl)pent-2-ynamide]	< 100 nM	> 1000 nM	–	–	–
CCC#CC(=O)Nc1cc(-c2cnc3[nH]cc(Cl)c3c2)ccc1F [Example 86, N-(5-(3-chloro-1H-pyrrolo[2,3-b]pyridin-5-yl)-2-fluorophenyl)pent-2-ynamide]	< 100 nM	> 100 nM	–	–	–
CC#CC(=O)Nc1cc(-c2cnc3[nH]ccc3c2)ccc1F [Example 87, N-(2-fluoro-5-(1H-pyrrolo[2,3-b]pyridin-5-yl)phenyl)but-2-ynamide]	< 100 nM	> 100 nM	–	–	–
CCC#CC(=O)Nc1cccc(-c2cnc3[nH]cc(C)c3c2)n1 [Example 90, N-(6-(3-methyl-1H-pyrrolo[2,3-b]pyridin-5-yl)pyridin-2-yl)pent-2-ynamide]	< 100 nM	< 100 nM	–	–	–
CC#CC(=O)Nc1cccc(-c2cnc3[nH]cc(C)c3c2)n1 [Example 91, N-(6-(3-methyl-1H-pyrrolo[1,3-b]pyridin-5-yl)pyridin-2-yl)but-2-ynamide]	< 100 nM	< 100 nM	–	–	–
C#CC(=O)Nc1cc(-c2cnc3[nH]cc(C)c3c2)ccc1F [Example 92, N-(2-fluoro-5-(3-methyl-1H-pyrrolo[2,3-b]pyridin-5-yl)phenyl)propiolamide]	< 100 nM	< 100 nM	–	–	–
CC#CC(=O)Nc1cc(-c2cnc3[nH]cc(C)c3c2)ccc1F [Example 93, N-(2-fluoro-5-(3-methyl-1H-pyrrolo[2,3-b]pyridin-5-yl)phenyl)but-2-ynamide]	> 100 nM	> 100 nM	–	–	–
CC#CC(=O)Nc1cccc(-c2cnc3[nH]cc(-c4cccc(S(=O)(=O)N(C)C(C)(C)C)c4)c3c2)c1 [Example 94, N-(3-(3-(3-(N-(tert-butyl)-N-methylsulfamoyl)phenyl)-1H-pyrrolo[2,3-b]pyridin-5-yl)phenyl)but-2-ynamide]	> 100 nM	–	–	–	> 100 nM
C#CC(=O)Nc1cccc(-c2cnc3[nH]cc(-c4cccc(S(=O)(=O)N(C)C(C)(C)C)c4)c3n2)c1 [Example 95, N-(3-(7-(3-(N-(tert-butyl)-N-methylsulfamoyl)phenyl)-5H-pyrrolo[2,3-b]pyrazin-2-yl)phenyl)propiolamide]	> 100 nM	> 100 nM	–	–	–

Continued, in another order:

IC50 (JAK3; [1])	IC50 (ITK; [2])	IC50 (JAK3; read-out: biochemical IC50 against JAK3)	IC50 (ITK; read-out: biochemical IC50 against ITK)	Structure (SMILES)	IC50 (ITK; read-out: ITK kinase inhibition)
> 100 nM	> 100 nM	–	–	CCC#CC(=O)Nc1cccc(-c2cnc3[nH]cc(-c4cccc(S(=O)(=O)N(C)C(C)(C)C)c4)c3n2)c1 [Example 96, N-(3-(7-(3-(N-(tert-butyl)-N-methylsulfamoyl)phenyl)-5H-pyrrolo[2,3-b]pyrazin-2-yl)phenyl)pent-2-ynamide]	–
> 100 nM	> 100 nM	–	–	C#CC(=O)Nc1cccc(-c2cnc3[nH]cc(-c4cc(F)cc(F)c4OC)c3c2)c1 [Example 98, N-(3-(3-(3,5-difluoro-2-methoxyphenyl)-1H-pyrrolo[2,3-b]pyridin-5-yl)phenyl)propiolamide]	–
> 100 nM	> 100 nM	–	–	COc1c(F)cc(F)cc1-c1c[nH]c2ncc(-c3cc(NC(=O)/C=C/CN(C)C)ccc3F)cc12 [Example 133, (E)-N-(3-(3-(3,5-difluoro-2-methoxyphenyl)-1H-pyrrolo[2,3-b]pyridin-5-yl)-4-fluorophenyl)-4-(dimethylamino)but-2-enamide]	–
> 100 nM	> 100 nM	–	–	COc1cc(F)c(C)cc1-c1c[nH]c2ncc(-c3cccc(NC(=O)/C=C/CN(C)C)c3)cc12 [Example 138, (E)-4-(dimethylamino)-N-(3-(3-(4-fluoro-2-methoxy-5-methylphenyl)-1H-pyrrolo[2,3-b]pyridin-5-yl)phenyl)but-2-enamide]	–
> 100 nM	> 1000 nM	–	–	C=CC(=O)Nc1cccc(-c2cnc3[nH]cc(-c4cc(C)c(F)cc4OC)c3c2)c1 [Example 140, N-(3-(3-(4-fluoro-2-methoxy-5-methylphenyl)-1H-pyrrolo[2,3-b]pyridin-5-yl)phenyl)acrylamide]	–
> 100 nM	> 100 nM	–	–	Cc1cccc(-c2c[nH]c3ncc(-c4cccc(NC(=O)/C=C/CN(C)C)c4)cc23)c1F [Example 145, (E)-4-(dimethylamino)-N-(3-(3-(2-fluoro-3-methylphenyl)-1H-pyrrolo[2,3-b]pyridin-5-yl)phenyl)but-2-enamide]	–
> 100 nM	> 100 nM	–	–	Cc1c[nH]c2ncc(-c3cccc(NC(=O)/C=C/CN(C)C)c3)cc12 [Example 152, (E)-4-(dimethylamino)-N-(3-(3-methyl-1H-pyrrolo[2,3-b]pyridin-5-yl)phenyl)but-2-enamide]	–
< 100 nM	> 100 nM	–	–	CN(C)C/C=C/C(=O)Nc1cccc(-c2cnc3[nH]cc(Cl)c3c2)c1 [Example 153, (E)-N-(3-(3-chloro-1H-pyrrolo[2,3-b]pyridin-5-yl)phenyl)-4-(dimethylamino)but-2-enamide]	–
< 100 nM	< 100 nM	–	–	COc1c(F)cc(F)cc1-c1c[nH]c2ncc(-c3cccc(NC(=O)/C(C)=C/C(C)(C)C)c3)cc12 [Example 158, (E)-N-(3-(3-(3,5-difluoro-2-methoxyphenyl)-1H-pyrrolo[2,3-b]pyridin-5-yl)phenyl)-2,4,4-trimethylpent-2-enamide]	–
< 100 nM	< 100 nM	–	–	C=CC(=O)Nc1cc(F)cc(-c2cnc3[nH]cc(-c4cc(F)cc(F)c4OC)c3c2)c1C [Example 168, N-(3-(3-(3,5-difluoro-2-methoxyphenyl)-1H-pyrrolo[2,3-b]pyridin-5-yl)-5-fluoro-2-methylphenyl)acrylamide]	–
< 100 nM	< 100 nM	–	–	COc1c(F)cc(F)cc1-c1c[nH]c2ncc(-c3cc(F)cc(NC(=O)/C=C/CN(C)C)c3C)cc12 [Example 169, (E)-N-(3-(3-(3,5-difluoro-2-methoxyphenyl)-1H-pyrrolo[2,3-b]pyridin-5-yl)-5-fluoro-2-methylphenyl)-4-(dimethylamino)but-2-enamide]	–
< 100 nM	< 100 nM	–	–	COc1c(F)cc(F)cc1-c1c[nH]c2ncc(-c3cc(F)cc(NC(=O)/C(C)=C/C(C)(C)C)c3C)cc12 [Example 170, (E)-N-(3-(3-(3,5-difluoro-2-methoxyphenyl)-1H-pyrrolo[2,3-b]pyridin-5-yl)-5-fluoro-2-methylphenyl)-2,4,4-trimethylpent-2-enamide]	–
